How the values were obtained:
human M4 receptor = target: T1, human M4 receptor (Homo sapiens, UniProt P08173); test: M4 GTPγS PAM assay; assay type: biochemical; conditions: membranes of CHO-K1 cells stably expressing human M4; EC20 acetylcholine 40 nM; 35S-GTP
T1 construct: expressed in transfected cells
T1 sequence (P08173 1-479): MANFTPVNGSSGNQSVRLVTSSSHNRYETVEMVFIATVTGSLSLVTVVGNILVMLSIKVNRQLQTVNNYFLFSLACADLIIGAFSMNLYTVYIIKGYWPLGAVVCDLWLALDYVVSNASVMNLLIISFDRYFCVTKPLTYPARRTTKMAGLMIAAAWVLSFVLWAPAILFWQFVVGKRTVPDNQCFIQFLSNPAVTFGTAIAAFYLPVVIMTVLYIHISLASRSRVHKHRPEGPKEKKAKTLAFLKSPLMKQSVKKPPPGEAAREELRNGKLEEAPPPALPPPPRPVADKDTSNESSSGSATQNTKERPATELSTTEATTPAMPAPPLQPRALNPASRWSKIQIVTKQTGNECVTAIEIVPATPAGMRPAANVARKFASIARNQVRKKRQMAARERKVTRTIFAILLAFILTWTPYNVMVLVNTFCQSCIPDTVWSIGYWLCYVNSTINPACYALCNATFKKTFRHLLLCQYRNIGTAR
Description: The M4 GTPγS PAM method was used. Membranes were prepared for GTPgS binding assays from CHO-K1 cells stably expressing human M4 receptor. Briefly, cells were grown in 5-layer cell culture flasks. Cells were washed with 50 mL of PBS and then dissociated with 0.05% trypsin. Dissociated cells were then collected by centrifugation at 650×g for 8 minutes at 4° C. Pellets were washed again in PBS by centrifugation and resuspended in 30 mL of 20 mM HEPES, 10 mM EDTA, pH 7.4. After sitting on ice for 30 min, membranes were collected by centrifugation at 50000×g for 15′ at 4° C., resuspended in 30 mL of 20 mM HEPES, 0.1 mM EDTA, pH 7.4 and collected again by centrifugation. Pellets were then washed twice by centrifugation in 30 mL of 20 mM HEPES, pH 7.4, and stored at −80° C. until the day of the assay. On the day of the assay, pellets were thawed on ice and resuspended in 1 mL of 20 mM HEPES, pH 7.4, 10 mM MgCl2, 100 mM NaCl using dounce homogenization. Membrane protein concentration is determined by BCA protein assay (Promega, Madison, WI) according to Promega guidelines.
On the day of the assay, serial dilutions of test PAM compounds were brought up in assay buffer (20 mM HEPES, 10 mM MgCl2, 100 mM NaCl) at 4× final assay concentration. […] of membrane homogenates (containing […] of membrane protein) were prepared in assay buffer supplemented with GDP at 4× final assay concentration (final assay concentration of GDP is 5 μM for M2 and 0.1 μM for M4) and dispensed into 96 well polypropylene, U-bottom Greiner plates. […] of vehicle or test PAM compound at 4× of final assay concentration diluted in the assay buffer were added to membrane and plates are incubated for 10-15 minutes at room temperature with gentle shaking. Then, […] of EC20 acetylcholine in assay buffer at 4× final assay concentration was added to assay plates (EC20 final assay concentrations was 40 nM for human M4).
Plates were then incubated, with shaking, for an additional 10-15 minutes. […] of 0.4 nM 35S-GTP (Perkin Elmer, Waltham, MA) in assay buffer was added to assay mixtures. The binding reaction is left on the shaker for 1 hour at room temperature. Membranes in assay reactions were then transferred to GF/C filter plates (Unifilter, Perkin Elmer) and washed three times using a FilterMate Harvester (Perkin Elmer) with cold assay buffer containing no GDP. Filter plates were then dried at 40° C. overnight followed by the addition of […] of Beta Plate Scintillation liquid. Plates are top and bottom sealed before being read on TopCount scintillation counter (Perkin Elmer, Waltham, MA).

hM4 receptors = target: T2, hM4 receptors (Homo sapiens, UniProt P08173); test: Human M4 PAM pERK assay; assay type: cell-based; conditions: CHO cells expressing hM4; EC20 of acetylcholine (10 nM final); TR-FRET
T2 construct: expressed in transfected cells; host or cells: CHO cells
T2 sequence (P08173 1-479): T1 sequence (P08173 1-479)
Description: (§1) Chinese hamster ovary (CHO) cells expressing either hM4 or rM4 receptors were frozen in assay ready vials (5×10^6 cells/vial) after bulking-up in culture. The day before an assay, vial(s) were thawed and cells seeded in 384 well white proxiplates at 1000/well for hM4 cells and at 2000/well for rM4 cells, in 10 μL of growth media (Hams/F12 with glutamax and 10% FCS) and incubated overnight at 37° C./5% CO2.
(§2) On the following morning, the growth media was removed by ‘flicking out’ over a bin, patting the inverted plate onto tissue, and then replacing with 10 μL of wash media (Hams/F12 with glutamax and 8 mM HEPES, NB: serum free). Then, the wash media was removed in the same way and replaced with 8 μL/well of the serum free media. Plates were then re-incubated for a further 4 hours at 37° C./5% CO2.
(§3) Compounds for testing were solubilized to 10 mM in DMSO and compound addition plates, consisting of ten-point concentration response curves (CRC) in duplicate points (10 μM top concentration, 1/2 log dilution series), were prepared by acoustic dispensing and the compound management group.
(§4) After the 4-hour incubation in serum free media, a 4 μL aliquot of the 3× compound solution containing an EC20 of acetylcholine (10 nM final concentration) was added to the cell plate using a 384 well plate to plate transfer. Then, the plate lid was replaced, and the cells incubated for 5 mins at 37° C./5% CO2. Following this final incubation, all cellular processes were stopped by the addition of 4 μL/well of lysis and blocking buffer and plates were incubated for 30 minutes at RT on an orbital shaker (gentle setting). Then, a final addition of 4 μL/well of antibody detection mix, containing both the Europium-Cryptate (donor) and d2 (acceptor) tagged detection components, was added followed by a further 2-hour incubation at RT, and then the plate was read using a TR-FRET (time resolved fluorescence resonance energy transfer) based protocol.

rM4 receptors = target: T3, rM4 receptors (Rattus norvegicus, UniProt P08485); test: Rat M4 PAM pERK assay; assay type: cell-based; conditions: CHO cells expressing rM4; EC20 of acetylcholine (10 nM final); TR-FRET
T3 construct: expressed in transfected cells; host or cells: CHO cells
T3 sequence (P08485 1-478): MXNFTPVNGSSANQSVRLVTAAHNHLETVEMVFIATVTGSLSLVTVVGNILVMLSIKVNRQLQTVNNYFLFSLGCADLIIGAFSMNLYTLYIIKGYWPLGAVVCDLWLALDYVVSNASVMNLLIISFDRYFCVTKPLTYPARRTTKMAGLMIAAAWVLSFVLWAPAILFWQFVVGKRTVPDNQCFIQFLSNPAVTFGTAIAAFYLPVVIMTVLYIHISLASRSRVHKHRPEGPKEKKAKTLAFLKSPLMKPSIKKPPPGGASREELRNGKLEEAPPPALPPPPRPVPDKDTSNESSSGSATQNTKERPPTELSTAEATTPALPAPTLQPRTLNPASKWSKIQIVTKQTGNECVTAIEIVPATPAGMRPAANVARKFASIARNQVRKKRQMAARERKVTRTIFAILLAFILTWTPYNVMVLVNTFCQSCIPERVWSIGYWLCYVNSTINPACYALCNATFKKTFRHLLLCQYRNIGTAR
Description: as §1, §2, §3, §4

Row | Compound | EC50 (human M4 receptor) | EC50 (hM4 receptors) | EC50 (rM4 receptors)
1 | COc1nc(C#N)nc2c1C(C)N(C(=O)CC1CN(c3ccnc(OC4CC4)c3)C1)C2 (single isomer, unassigned) [Compound I-13, 6-(2-(1-(2-Cyclopropoxypyridin-4-yl)azetidin-3-yl)acetyl)-4-methoxy-5-methyl-6,7-dihydro-5H-pyrrolo[3,4-d]pyrimidine-2-carbonitrile] | 500 to 2000 nM | ≥ 2000 nM | ≥ 2000 nM
2 | COc1nc(C2CC2)nc2c1CN(C(=O)CC1CN(c3ccnc(C(F)(F)F)c3)C1)C2 [Compound I-79, 1-(2-Cyclopropyl-4-methoxy-5,7-dihydro-6H-pyrrolo[3,4-d]pyrimidin-6-yl)-2-(1-(2-(trifluoromethyl)pyridin-4-yl)azetidin-3-yl)ethan-1-one] | 100 to 500 nM | 500 to 2000 nM | 500 to 2000 nM
3 | COc1nc(C#N)nc2c1C(C)N(C(=O)CC1CN(c3cncnc3)C1)C2 (single isomer, unassigned) [Compound I-27, 4-Methoxy-5-methyl-6-(2-(1-(pyrimidin-5-yl)azetidin-3-yl)acetyl)-6,7-dihydro-5H-pyrrolo[3,4-d]pyrimidine-2-carbonitrile] | ≥ 2000 nM | ≤ 100 nM | 500 to 2000 nM
4 | COc1nc2c(c(OC)n1)C(C)N(C(=O)CC1CN(c3ccnc(C(F)(F)F)c3)C1)C2 (single isomer, unassigned) [Compound I-68, 1-(2,4-Dimethoxy-5-methyl-5,7-dihydro-6H-pyrrolo[3,4-d]pyrimidin-6-yl)-2-(1-(2-(trifluoromethyl)pyridin-4-yl)azetidin-3-yl)ethan-1-one] | ≤ 100 nM | 100 to 500 nM | 100 to 500 nM
5 | COc1nc(C#N)nc2c1C(C)N(C(=O)CC1CN(c3ccc(C4CC4)c(F)c3)C1)C2 (single isomer, unassigned) [Compound I-21, 6-(2-(1-(4-Cyclopropyl-3-fluorophenyl)azetidin-3-yl)acetyl)-4-methoxy-5-methyl-6,7-dihydro-5H-pyrrolo[3,4-d]pyrimidine-2-carbonitrile] | ≥ 2000 nM | ≥ 2000 nM | ≥ 2000 nM
6 | COc1nc(C#N)nc2c1CN(C(=O)CC1CN(c3ccnc(C(F)(F)F)c3)C1)C2C (single isomer, unassigned) [Compound I-35, 4-Methoxy-7-methyl-6-(2-(1-(2-(trifluoromethyl)pyridin-4-yl)azetidin-3-yl)acetyl)-6,7-dihydro-5H-pyrrolo[3,4-d]pyrimidine-2-carbonitrile] | ≥ 2000 nM | 100 to 500 nM | 500 to 2000 nM
7 | COc1nc(C#N)nc2c1C(C)N(C(=O)CC1CN(c3ccc(C4CC4)nc3)C1)C2 (single isomer, unassigned) [Compound I-32, 6-(2-(1-(6-Cyclopropylpyridin-3-yl)azetidin-3-yl)acetyl)-4-methoxy-5-methyl-6,7-dihydro-5H-pyrrolo[3,4-d]pyrimidine-2-carbonitrile] | ≥ 2000 nM | ≥ 2000 nM | ≥ 2000 nM
8 | COc1nc2c(c(OC)n1)C(C)N(C(=O)CC1CN(c3ccc(C#N)cc3)C1)C2 (single isomer, unassigned) [Compound I-65, 4-(3-(2-(2,4-dimethoxy-5-methyl-5,7-dihydro-6H-pyrrolo[3,4-d]pyrimidin-6-yl)-2-oxoethyl)azetidin-1-yl)benzonitrile] | ≥ 2000 nM | ≥ 2000 nM | ≥ 2000 nM
9 | COc1nc(C#N)nc2c1C(C)N(C(=O)CC1CN(c3ccnc(C(F)(F)F)c3)C1C)C2 (single isomer, unassigned) [Compound I-37, 4-Methoxy-5-methyl-6-(2-(2-methyl-1-(2-(trifluoromethyl)pyridin-4-yl)azetidin-3-yl)acetyl)-6,7-dihydro-5H-pyrrolo[3,4-d]pyrimidine-2-carbonitrile] | ≤ 100 nM | ≤ 100 nM | 100 to 500 nM
10 | COc1nc(C)nc2c1CN(C(=O)CC1CN(c3ccnc(C(F)(F)F)c3)C1)C2C (single isomer, unassigned) [Compound I-62, 1-(4-Methoxy-2,7-dimethyl-5,7-dihydro-6H-pyrrolo[3,4-d]pyrimidin-6-yl)-2-(1-(2-(trifluoromethyl)pyridin-4-yl)azetidin-3-yl)ethan-1-one] | 100 to 500 nM | 100 to 500 nM | 500 to 2000 nM
11 | COc1nc(C)nc2c1C(C)N(C(=O)CC1CN(c3ccnc(C(F)(F)F)c3)C1)C2 (racemic) [Compound I-51, 1-(4-Methoxy-2,5-dimethyl-5,7-dihydro-6H-pyrrolo[3,4-d]pyrimidin-6-yl)-2-(1-(2-(trifluoromethyl)pyridin-4-yl)azetidin-3-yl)ethan-1-one] | 100 to 500 nM | 100 to 500 nM | 500 to 2000 nM
12 | COc1nc(C)nc2c1C(C)N(C(=O)CC1CN(c3ccc(C#N)cc3)C1)C2 (single isomer, unassigned) [Compound I-56, 4-(3-(2-(4-Methoxy-2,5-dimethyl-5,7-dihydro-6H-pyrrolo[3,4-d]pyrimidin-6-yl)-2-oxoethyl)azetidin-1-yl)benzonitrile] | 100 to 500 nM | ≤ 100 nM | 100 to 500 nM
13 | COc1nc(C)nc2c1CN(C(=O)CC1CN(c3ccnc(C(F)(F)F)c3)C1)C2 [Compound I-43, 1-(4-Methoxy-2-methyl-5,7-dihydro-6H-pyrrolo[3,4-d]pyrimidin-6-yl)-2-(1-(2-(trifluoromethyl)pyridin-4-yl)azetidin-3-yl)ethan-1-one] | 100 to 500 nM | 100 to 500 nM | 500 to 2000 nM

From patent US20260209234A1, “SUBSTITUTED DIHYDROPYRROLO[3,4-D]PYRIMIDINE COMPOUNDS AND THEIR USE IN TREATING MEDICAL CONDITIONS” (Karuna Therapeutics, Inc., priority 2022, published 2026)
